This experiment concerns the target T1, α-Gal A mutant form T194A (Homo sapiens, UniProt P06280, T194A).
T1 construct: expressed in transfected cells; host or cells: HEK-293
T1 sequence (P06280 32-429 T194A): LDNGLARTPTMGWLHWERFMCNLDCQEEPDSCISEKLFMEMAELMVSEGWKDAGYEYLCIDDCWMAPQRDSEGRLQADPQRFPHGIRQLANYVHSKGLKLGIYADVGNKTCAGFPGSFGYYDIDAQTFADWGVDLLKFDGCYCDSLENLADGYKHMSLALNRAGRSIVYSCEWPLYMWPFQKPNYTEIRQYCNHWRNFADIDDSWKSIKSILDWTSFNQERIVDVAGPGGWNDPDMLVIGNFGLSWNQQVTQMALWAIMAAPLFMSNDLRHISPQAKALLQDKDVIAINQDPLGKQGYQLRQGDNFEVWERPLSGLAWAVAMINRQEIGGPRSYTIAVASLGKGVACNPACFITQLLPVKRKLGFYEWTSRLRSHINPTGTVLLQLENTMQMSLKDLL
Put plainly: α-Gal A activity in lysates of transfected HEK-293 cells, T194A. In kind it is cell-based. On the procedure: Baseline and 10 μM migalastat α-Gal A activity: Differences in the α-Gal A activity between lysates incubated in the absence and presence of 10 μM migalastat were determined using a one-tailed, Mann Whitney U test; an increase at 10 μM migalastat with a p<0.05 was considered significant.
10 μM migalastat α-Gal A activity (% WT)=(α-Gal A activity in mutant transfected cell lysates incubated with 10 μM migalastat÷α-Gal A activity in wild-type transfected cell lysates without migalastat)*100.
Absolute increase (% WT)=is the 10 μM migalastat α-Gal A activity (% WT) minus the baseline α-Gal A activity (% WT).
Relative increase is the 10 μM migalastat α-Gal A activity in mutant transfected cell lysates÷baseline α-Gal A activity in mutant transfected cell lysates incubated without migalastat.

Each structure is given as a SMILES string.

In the case of `OC[C@H]1NC[C@H](O)[C@@H](O)[C@H]1O` [migalastat, (2R,3S,4R,5S)-2-(hydroxymethyl) piperdine-3,4,5-triol], the “Absolute increase (% WT)” value (10 μM migalastat minus baseline) is on record as 19.7 % WT. This molecule had a Relative increase (10 μM migalastat ÷ baseline activity) of 2.75. Also, the “10 nM migalastat α-Gal A activity” value (HEK-293 lysates, 10 nM migalastat as printed, 5 days, mean ± SEM) was 10315 ± 459 nmol/mg/h. For the same molecule, the “10 μM migalastat α-Gal A activity (% WT)” value (HEK-293 lysates, 10 μM migalastat, 5 days, mean ± SEM) is on record as 30.5 ± 2.0 % WT.

Values taken from US12594268B2, “Methods of treating Fabry disease in patients having a mutation in the GLA gene” (Amicus Therapeutics, Inc., priority 2018, dated 2026).
